Test results taken from patent US20060004197A1, “Sulfonamide-based compounds as protein tyrosine kinase inhibitors” (priority 2004, published 2006).

Columns and labels:
Assay type in all cases: biochemical
[1] = target: Recombinant Csk (Homo sapiens, UniProt P41240); test: Csk tyrosine kinase activity, poly E4Y / 32P-ATP phosphorylation assay
[2] = target: T1, Recombinant human Src (Homo sapiens, UniProt P12931); test: Src tyrosine kinase activity, poly E4Y / 32P-ATP phosphorylation assay
T1 construct: made in house; host or cells: baculovirus-insect cell system

[3] = target: FGF receptor (FGFr); test: FGFr tyrosine kinase activity, poly E4Y / 32P-ATP phosphorylation assay
[4] = Table 3, Formula II compounds, NI = no inhibition at 100 μg/mL
[5] = Table 2, Formula I compounds, NI = no inhibition at 100 μg/mL
[6] = poly E4Y / 32P-ATP, Formula IV compounds

Chain of Recombinant Csk (P41240 whole entry, species assumed): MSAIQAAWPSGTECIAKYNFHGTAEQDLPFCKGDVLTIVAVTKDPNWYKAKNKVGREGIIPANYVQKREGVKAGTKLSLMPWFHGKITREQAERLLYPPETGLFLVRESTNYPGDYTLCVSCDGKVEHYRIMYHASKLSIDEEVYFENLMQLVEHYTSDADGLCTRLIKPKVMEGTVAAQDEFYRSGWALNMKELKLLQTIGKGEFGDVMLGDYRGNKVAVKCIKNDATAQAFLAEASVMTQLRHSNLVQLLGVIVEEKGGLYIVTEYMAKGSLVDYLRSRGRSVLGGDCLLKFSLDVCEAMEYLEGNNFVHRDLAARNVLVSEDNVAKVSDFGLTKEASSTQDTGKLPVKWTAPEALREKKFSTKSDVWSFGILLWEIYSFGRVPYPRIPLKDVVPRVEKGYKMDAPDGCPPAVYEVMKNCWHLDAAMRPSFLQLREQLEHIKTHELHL
T1 sequence (P12931 whole entry): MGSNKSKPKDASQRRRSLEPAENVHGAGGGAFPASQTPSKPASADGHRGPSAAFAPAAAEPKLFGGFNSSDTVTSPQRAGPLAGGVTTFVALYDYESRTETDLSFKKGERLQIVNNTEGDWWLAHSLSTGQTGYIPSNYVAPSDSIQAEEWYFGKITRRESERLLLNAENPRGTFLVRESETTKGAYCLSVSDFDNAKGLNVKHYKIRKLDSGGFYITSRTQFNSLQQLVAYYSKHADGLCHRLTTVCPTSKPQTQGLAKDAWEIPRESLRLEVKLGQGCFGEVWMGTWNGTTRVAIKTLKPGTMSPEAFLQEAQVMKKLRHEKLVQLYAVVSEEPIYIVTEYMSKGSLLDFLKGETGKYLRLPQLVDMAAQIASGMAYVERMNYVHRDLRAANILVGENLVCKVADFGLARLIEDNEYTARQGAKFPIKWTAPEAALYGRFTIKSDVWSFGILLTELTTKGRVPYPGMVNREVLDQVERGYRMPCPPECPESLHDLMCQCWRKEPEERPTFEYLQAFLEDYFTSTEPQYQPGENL

| SMILES | IC50 [1, 4] [µM] | IC50 [2, 4] [µM] | IC50 [3, 4] [µM] | also measured |
| --- | --- | --- | --- | --- |
| Cc1ccc(S(=O)(=O)Nc2ccc(-c3ccc(Cl)cc3)cc2NS(=O)(=O)c2ccc(C)cc2)cc1 [Compound 21, N-[4-(4-chloro-phenyl)-2-(4-toluenesulfonylamino)-phenyl]-4-toluenesulfonamide] | > 190 | 8.6 | 23 |  |
| CCc1ccc(S(=O)(=O)Nc2ccc(Oc3ccc(OC)cc3)cc2NS(=O)(=O)c2ccc(CC)cc2)cc1 [Compound 12a, 4-ethyl-N-[2-(4-ethyl-benzenesulfonylamino)-4-(4-methoxy-phenoxy)-phenyl]-benzenesulfonamide] | > 176 | 23 | 44 |  |
| Cc1ccc(S(=O)(=O)Nc2cc(Sc3cccc(C)c3)c([N+](=O)[O-])cc2NS(=O)(=O)c2ccc(C)cc2)cc1 [Compound 4k, N-[5-nitro-2-(4-toluenesulfonylamino)-4-(m-tolylsulfanyl)-phenyl]-4-toluenesulfonamide] |  |  |  | IC50 [1, 5]: 9.4 µM; IC50 [2, 5]: 1.9 µM; IC50 [3, 5]: 3.1 µM |
| Cc1ccc(S(=O)(=O)Nc2ccc(N3CCN(S(=O)(=O)c4ccc(C)cc4)CC3)cc2NS(=O)(=O)c2ccc(C)cc2)cc1 [Compound 17e, N-{2-(4-toluenesulfonylamino)-4-[4-(toluene-4-sulfonyl)-piperazin-1-yl]-phenyl}-4-toluenesulfonamide] | > 153 | 19 | 21 |  |
| COc1ccc(Oc2ccc(NS(=O)(=O)c3ccc(C)cc3)c(O)c2)cc1 [Compound 59, N-[2-hydroxy-4-(4-methoxy-phenoxy)-phenyl]-4-toluenesulfonamide] |  |  |  | IC50 [1, 6]: > 259 µM; IC50 [2, 6]: 65 µM; IC50 [3, 6]: 65 µM |
| COc1ccc(Oc2ccc(N(C)S(=O)(=O)c3ccc(C)cc3)c(OC)c2)cc1 [Compound 61, N-[2-methoxy-4-(4-methoxy-phenoxy)-phenyl]-N-methyl-4-toluenesulfonamide] |  |  |  | IC50 [1, 6]: > 242 µM; IC50 [2, 6]: 177 µM; IC50 (μM) FGFr [3, 6]: NI (NI = no inhibition at 100 μg/mL) |
| Cc1ccc(S(=O)(=O)Nc2cc(Sc3ccccc3C(C)C)c([N+](=O)[O-])cc2NS(=O)(=O)c2ccc(C)cc2)cc1 [Compound 4n, N-[4-(2-isopropyl-phenylsulfanyl)-5-nitro-2-(4-toluenesulfonylamino)-phenyl]-4-toluenesulfonamide] |  |  |  | IC50 [1, 5]: 5.7 µM; IC50 [2, 5]: 1.3 µM; IC50 [3, 5]: 4.3 µM |
| COc1ccccc1Sc1cc(NS(=O)(=O)c2ccc(C)cc2)c(NS(=O)(=O)c2ccc(C)cc2)cc1[N+](=O)[O-] [Compound 4b, N-[4-(2-methoxy-phenylsulfanyl)-5-nitro-2-(4-toluenesulfonylamino)-phenyl]-4-toluenesulfonamide] |  |  |  | IC50 [1, 5]: 15 µM; IC50 [2, 5]: 7 µM; IC50 [3, 5]: 20 µM |
| Cc1ccc(S(=O)(=O)Nc2ccc(Sc3ccc(Cl)cc3)cc2NS(=O)(=O)c2ccc(C)cc2)cc1 [Compound 12ff, N-[4-(4-chloro-phenylsulfanyl)-2-(4-toluenesulfonylamino)-phenyl]-4-toluenesulfonamide] | 8.6 | 4 | 3.6 |  |
| Cc1ccc(S(=O)(=O)Nc2ccc(-n3cccn3)cc2NS(=O)(=O)c2ccc(C)cc2)cc1 [Compound 17a, N-[4-(pyrazol-1-yl)-2-(4-toluenesulfonylamino)-phenyl]-4-toluenesulfonamide] | 214 | 46 | 64 |  |
| Cc1ccc(S(=O)(=O)Nc2ccc(Oc3ccc4ccccc4c3)cc2NS(=O)(=O)c2ccc(C)cc2)cc1 [Compound 12u, N-[4-(naphthalene-2-yloxy)-2-(4-toluenesulfonylamino)-phenyl]-4-toluenesulfonamide] | 104 | 12 | 38 |  |
| COc1ccc(Oc2ccc(NS(=O)(=O)c3ccccc3)c(NS(=O)(=O)c3ccccc3)c2)cc1 [Compound 12n, N-[2-benzenesulfonylamino-4-(4-methoxy-phenoxy)-phenyl]-benzenesulfonamide] | > 196 | 29 | 24 |  |
| CS(=O)(=O)Nc1cc(Sc2ccc(Cl)cc2)c([N+](=O)[O-])cc1NS(C)(=O)=O [Compound 4u, N-[5-(4-chloro-phenylsulfanyl)-2-methanesulfonylamino-4-nitro-phenyl]-methanesulfonamide] |  |  |  | IC50 [1, 5]: 333 µM; IC50 [2, 5]: 590 µM; IC50 [3, 5]: 188 µM |
| COc1ccc(Oc2ccc(NS(=O)(=O)c3ccc(C(C)(C)C)cc3)c(NS(=O)(=O)c3ccc(C(C)(C)C)cc3)c2)cc1 [Compound 12o, N-[2-(4-t-butyl-benzenesulfonylamino)-4-(4-methoxy-phenoxy)-phenyl]-4-t-butyl-benzenesulfonamide] | > 161 | 7.2 | 22 |  |
| COc1ccc(Oc2ccc(NS(=O)(=O)c3ccc(Oc4ccccc4)cc3)c(NS(=O)(=O)c3ccc(Oc4ccccc4)cc3)c2)cc1 [Compound 12e, N-[4-(4-methoxy-phenoxy)-2-(4-phenoxy-benzenesulfonylamino)-phenyl]-4-phenoxy-benzenesulfonamide] | > 144 | 19 | 46 |  |
| COc1ccc(Oc2ccc(NS(=O)(=O)c3ccc(F)cc3)c(NS(=O)(=O)c3ccc(F)cc3)c2)cc1 [Compound 12d, 4-fluoro-N-[2-(4-fluoro-benzenesulfonylamino)-4-(4-methoxy-phenoxy)-phenyl]-benzenesulfonamide] | 73 | 24 | 35 |  |
| COc1ccc(Oc2ccc(NS(=O)(=O)c3ccc(C)cc3)c(OCCCO)c2)cc1 [Compound 63, N-[2-(3-hydroxy-propoxy)-4-(4-methoxy-phenoxy)-phenyl]-4-toluenesulfonamide] |  |  |  | IC50 [1, 6]: > 225 µM; IC50 [2, 6]: 212 µM; IC50 (μM) FGFr [3, 6]: NI (NI = no inhibition at 100 μg/mL) |
| COc1ccc(Oc2ccc(NS(=O)(=O)c3ccc(OC)cc3)c(NS(=O)(=O)c3ccc(OC)cc3)c2)cc1 [Compound 12k, N-[2-(4-methoxy-benzenesulfonylamino)-4-(4-methoxy-phenoxy)-phenyl]-4-methoxy-benzenesulfonamide] | 88 | 21 | 44 |  |
| Cc1ccc(S(=O)(=O)Nc2ccc(-n3ccnc3)cc2NS(=O)(=O)c2ccc(C)cc2)cc1 [Compound 17d, N-[4-(imidazol-1-yl)-2-(4-toluenesulfonylamino)-phenyl]-4-toluenesulfonamide] | > 207 | 51 | 3.1 |  |
| COc1ccc(CSc2cc(NS(=O)(=O)c3ccc(C)cc3)c(NS(=O)(=O)c3ccc(C)cc3)cc2[N+](=O)[O-])cc1 [Compound 4s, N-[4-(4-methoxy-benzylsulfanyl)-5-nitro-2-(4-toluenesulfonylamino)-phenyl]-4-toluenesulfonamide] |  |  |  | IC50 [1, 5]: 5.7 µM; IC50 [2, 5]: 1.3 µM; IC50 [3, 5]: 4.3 µM |
| Cc1ccc(C(=O)Nc2cc([N+](=O)[O-])c(Sc3ccc(Cl)cc3)cc2N)cc1 [Compound 56, N-[2-amino-4-(4-chloro-phenylsulfanyl)-5-nitro-phenyl]-4-toluamide] |  |  |  | IC50 [1, 6]: > 242 µM; IC50 [2, 6]: > 242 µM; IC50 [3, 6]: 410 µM |
| Cc1ccc(S(=O)(=O)Nc2ccc(OCC3CCCCC3)cc2NS(=O)(=O)c2ccc(C)cc2)cc1 [Compound 15f, N-[4-cyclohexylmethoxy-2-(4-toluenesulfonylamino)-phenyl]-4-toluenesulfonamide] | > 189 | 42 | 91 |  |
| Cc1ccc(S(=O)(=O)Nc2cc(Sc3ccccc3)c([N+](=O)[O-])cc2NS(=O)(=O)c2ccc(C)cc2)cc1 [Compound 4o, N-[5-nitro-4-phenylsulfanyl-2-(4-toluenesulfonylamino)-phenyl]-4-toluenesulfonamide] |  |  |  | IC50 [1, 5]: 5.7 µM; IC50 [2, 5]: 1.3 µM; IC50 [3, 5]: 1.8 µM |
